Measurements published in patent publication US8163269B2, “Bioactive stents for type II diabetics and methods for use thereof” (priority 2004, dated 2012).
No end group written: not given here.

Test system: ECs
Assay: adhesion assay with peptides conjugated to PEA polymer
Format: cell-based, Human
Parameters: key to adhesion assay microscopic observation, cell shape: r = round; s = spindly; sp = spread
Procedure: The attachment factor, in a phosphate buffered saline (PBS) solution, was coated onto a non-tissue culture dish and allowed to adsorb overnight at 4° C. The following day the plate was blocked for 1 hour at room temperature with heat-inactivated, 0.2% bovine serum albumin (BSA) solution (in PBS) to prevent non-specific attachment. A timed adhesion assay was then conducted. The assay includes negative control wells coated only with PBS and positive control wells coated with fibronectin. So far, none of the adhesion factors tested has surpassed the cell adhesion and cell spreading induced by fibronectin. In addition to adhesion, spreading is also an important consideration in determining the suitability of a substrate. If the cells are not able to spread, it is unlikely that the cells will proliferate on that surface.
The first conjugation was done to the PEA-H version of the polymer (acid) since this polymer has suitable sites for conjugation. The peptides can be covalently bound to this polymer via a wide variety of suitable functional groups. For example, when the biodegradable polymer is a poly(ester amide) (PEA) containing Lysine residues, the carboxyl groups from the Lysine residues can be used to react with a complementary moiety on the peptide, such as an hydroxy, amino, thio moiety, and the like (5). Specifically, the PEA-H polymer with free COOH reacts with water soluble carbodiimide (WSC) and N-Hydroxysuccinimide (HOSu) to produce an activated ester, which, in turn, reacts with an amino functional group of a peptide to provide an amide linkage (FIG. 6B). By using a fluorescent dansyl-lysine (FIG. 5), the optimal reaction conditions for activation and conjugation were determined (FIG. 6A).
The conjugation of CS5 and GREDVDY peptides to the polymer was then performed using the same protocol (FIG. 6B).
A similar protocol (see flow chart FIG. 6B) was used to conjugate combinations of the acid polymer with PEA polymer of structure (I) containing acetylated ends and benzylated COOH groups, (PEA-AcBz) and PEA-TEMPO (50/50 and 10/90), respectively. By combining the conjugatable acid form with the other polymers, a determination could be made whether the presence of the recruitment peptide on the polymer conferred an advantage in EC recruitment.
Microscopic observations taken at 2 h, 4 h and 6 h from duplicate wells from two representative adhesion assays are summarized in Table 2 below.

[1] = 2 h, 10/90 H/Bz (10% PEA-H and 90% PEA-Ac-Bz), Assay 1
[2] = 2 h, 10/90 H/Bz (10% PEA-H and 90% PEA-Ac-Bz), Assay 2
[3] = 2 h, 10/90 H/T (10% PEA-H and 90% PEA-Ac-TEMPO), Assay 1
[4] = 2 h, 10/90 H/T (10% PEA-H and 90% PEA-Ac-TEMPO), Assay 2
[5] = 2 h, 50/50 H/Bz (50% PEA-H and 50% PEA-Ac-Bz), Assay 1
[6] = 2 h, 50/50 H/Bz (50% PEA-H and 50% PEA-Ac-Bz), Assay 2
[7] = 2 h, 50/50 H/T (50% PEA-H and 50% PEA-Ac-TEMPO), Assay 1
[8] = 2 h, 50/50 H/T (50% PEA-H and 50% PEA-Ac-TEMPO), Assay 2
[9] = 4 h, 10/90 H/Bz (10% PEA-H and 90% PEA-Ac-Bz), Assay 1
[10] = 4 h, 10/90 H/Bz (10% PEA-H and 90% PEA-Ac-Bz), Assay 2
[11] = 4 h, 10/90 H/T (10% PEA-H and 90% PEA-Ac-TEMPO), Assay 1
[12] = 4 h, 10/90 H/T (10% PEA-H and 90% PEA-Ac-TEMPO), Assay 2
[13] = 4 h, 50/50 H/Bz (50% PEA-H and 50% PEA-Ac-Bz), Assay 1
[14] = 4 h, 50/50 H/Bz (50% PEA-H and 50% PEA-Ac-Bz), Assay 2
[15] = 4 h, 50/50 H/T (50% PEA-H and 50% PEA-Ac-TEMPO), Assay 1
[16] = 4 h, 50/50 H/T (50% PEA-H and 50% PEA-Ac-TEMPO), Assay 2
[17] = 6 h, 10/90 H/Bz (10% PEA-H and 90% PEA-Ac-Bz), Assay 1
[18] = 6 h, 10/90 H/Bz (10% PEA-H and 90% PEA-Ac-Bz), Assay 2
[19] = 6 h, 10/90 H/T (10% PEA-H and 90% PEA-Ac-TEMPO), Assay 1
[20] = 6 h, 10/90 H/T (10% PEA-H and 90% PEA-Ac-TEMPO), Assay 2
[21] = 6 h, 50/50 H/Bz (50% PEA-H and 50% PEA-Ac-Bz), Assay 1
[22] = 6 h, 50/50 H/Bz (50% PEA-H and 50% PEA-Ac-Bz), Assay 2
[23] = 6 h, 50/50 H/T (50% PEA-H and 50% PEA-Ac-TEMPO), Assay 1
[24] = 6 h, 50/50 H/T (50% PEA-H and 50% PEA-Ac-TEMPO), Assay 2

Conj CS5: CS5 peptide (SEQ ID NO:1) conjugated to PEA-H mixed with PEA-Ac-Bz or PEA-Ac-TEMPO polymer coating (GEEIQIGHIPREDVDYHLYP; also: conjugated to PEA polymer coating)
30-40%: adhesion assay microscopic observation, % [12] | adhesion assay microscopic observation, % [16] | adhesion assay microscopic observation, % [17] | adhesion assay microscopic observation, % [19]
30%: adhesion assay microscopic observation, % [1] | adhesion assay microscopic observation, % [2] | adhesion assay microscopic observation, % [3] | adhesion assay microscopic observation, % [4] | adhesion assay microscopic observation, % [8] | adhesion assay microscopic observation, % [10] | adhesion assay microscopic observation, % [11] | adhesion assay microscopic observation, % [13] | adhesion assay microscopic observation, % [14] | adhesion assay microscopic observation, % [15] | adhesion assay microscopic observation, % [18] | adhesion assay microscopic observation, % [20] | adhesion assay microscopic observation, % [22] | adhesion assay microscopic observation, % [24]
40%: adhesion assay microscopic observation, % [9]
r/s/sp: adhesion assay microscopic observation, cell shape [4] | adhesion assay microscopic observation, cell shape [11] | adhesion assay microscopic observation, cell shape [14] | adhesion assay microscopic observation, cell shape [16] | adhesion assay microscopic observation, cell shape [18] | adhesion assay microscopic observation, cell shape [19] | adhesion assay microscopic observation, cell shape [20]
r/s: adhesion assay microscopic observation, cell shape [1] | adhesion assay microscopic observation, cell shape [2] | adhesion assay microscopic observation, cell shape [3] | adhesion assay microscopic observation, cell shape [7] | adhesion assay microscopic observation, cell shape [8] | adhesion assay microscopic observation, cell shape [22] | adhesion assay microscopic observation, cell shape [24]
r: adhesion assay microscopic observation, cell shape [5] | adhesion assay microscopic observation, cell shape [6] | adhesion assay microscopic observation, cell shape [13] | adhesion assay microscopic observation, cell shape [15] | adhesion assay microscopic observation, cell shape [21] | adhesion assay microscopic observation, cell shape [23]
r/sp: adhesion assay microscopic observation, cell shape [9]
s/sp: adhesion assay microscopic observation, cell shape [10] | adhesion assay microscopic observation, cell shape [12] | adhesion assay microscopic observation, cell shape [17]
20-30%: adhesion assay microscopic observation, % [6] | adhesion assay microscopic observation, % [7]
20%: adhesion assay microscopic observation, % [5] | adhesion assay microscopic observation, % [21] | adhesion assay microscopic observation, % [23]

Conj REDV: GREDVDY peptide (SEQ ID NO:11) conjugated to PEA-H mixed with PEA-Ac-Bz or PEA-Ac-TEMPO polymer coating (also: conjugated to PEA polymer coating)
20%: adhesion assay microscopic observation, % [23]
r: adhesion assay microscopic observation, cell shape [5] | adhesion assay microscopic observation, cell shape [7] | adhesion assay microscopic observation, cell shape [23]
r/s: adhesion assay microscopic observation, cell shape [1] | adhesion assay microscopic observation, cell shape [3] | adhesion assay microscopic observation, cell shape [21]
30%: adhesion assay microscopic observation, % [1] | adhesion assay microscopic observation, % [2] | adhesion assay microscopic observation, % [3] | adhesion assay microscopic observation, % [4] | adhesion assay microscopic observation, % [8] | adhesion assay microscopic observation, % [13] | adhesion assay microscopic observation, % [15] | adhesion assay microscopic observation, % [16] | adhesion assay microscopic observation, % [17] | adhesion assay microscopic observation, % [21]
30-40%: adhesion assay microscopic observation, % [6] | adhesion assay microscopic observation, % [9] | adhesion assay microscopic observation, % [10] | adhesion assay microscopic observation, % [11] | adhesion assay microscopic observation, % [14] | adhesion assay microscopic observation, % [18] | adhesion assay microscopic observation, % [19] | adhesion assay microscopic observation, % [22] | adhesion assay microscopic observation, % [24]
40%: adhesion assay microscopic observation, % [12] | adhesion assay microscopic observation, % [20]
r/s/sp: adhesion assay microscopic observation, cell shape [2] | adhesion assay microscopic observation, cell shape [4] | adhesion assay microscopic observation, cell shape [6] | adhesion assay microscopic observation, cell shape [8] | adhesion assay microscopic observation, cell shape [9] | adhesion assay microscopic observation, cell shape [16] | adhesion assay microscopic observation, cell shape [18] | adhesion assay microscopic observation, cell shape [19] | adhesion assay microscopic observation, cell shape [22]
20-30%: adhesion assay microscopic observation, % [5] | adhesion assay microscopic observation, % [7]
s/sp: adhesion assay microscopic observation, cell shape [10] | adhesion assay microscopic observation, cell shape [11] | adhesion assay microscopic observation, cell shape [12] | adhesion assay microscopic observation, cell shape [13] | adhesion assay microscopic observation, cell shape [14] | adhesion assay microscopic observation, cell shape [17] | adhesion assay microscopic observation, cell shape [20] | adhesion assay microscopic observation, cell shape [24]
